A short description of the experiment: Inhibition of Cdk1.

What is called IC50 is the concentration that gives 50% inhibition. A higher IC50 goes with weaker potency in that assay. `NC(=O)Nc1sc(-c2ccc(C(=O)N3CCCCC3)cc2)cc1C(=O)N[C@H]1CCCNC1` [(S)-1-(3-(piperidin-3-ylcarbamoyl)-5-(4-(piperidine-1-carbonyl)phenyl)thiophen-2-yl)urea] came in with an IC50 of 10.8 µM.
Under `CCN(CC)CCOc1ccc(-c2cc(C(=O)Nc3cccnc3)c(NC(N)=O)s2)cc1` [1-(5-(4-(2-(diethylamino)ethoxy)phenyl)-3-(pyridin-3-ylcarbamoyl)thiophen-2-yl)urea] stands 44 µM.
Under `NC(=O)Nc1sc(-c2cccc(Cl)c2)cc1C(=O)N[C@H]1CCCNC1` [1-(3-((S)-piperidin-3-ylcarbamoyl)-5-(3-chlorophenyl)thiophen-2-yl)urea] stands 8.8 µM; under `CCN(CC)CCOc1ccc(-c2cc(C(=O)NC3CCNC3)c(NC(N)=O)s2)cc1` (configuration not stated) [1-(5-(4-(2-(diethylamino)ethoxy)phenyl)-3-(pyrrolidin-3-ylcarbamoyl)thiophen-2-yl)urea], over 100 µM.
For `NC(=O)Nc1sc(-c2ccc(F)cc2)cc1C(=O)N[C@H]1CCCNC1` [(S)-1-(5-(4-fluorophenyl)-3-(piperidin-3-ylcarbamoyl)thiophen-2-yl)urea], the IC50 worked out at 3.3 µM.
Then `CS(=O)(=O)c1ccc(-c2cc(C(=O)N[C@H]3CCCNC3)c(NC(N)=O)s2)cc1` [(S)-1-(5-(4-(methylsulfonyl)phenyl)-3-(piperidin-3-ylcarbamoyl)thiophen-2-yl)urea], with 2.2 µM; and `CN(C)c1ccc(-c2cc(C(=O)N[C@H]3CCCNC3)c(NC(N)=O)s2)cc1` [(S)-1-(5-(4-(dimethylamino)phenyl)-3-(piperidin-3-ylcarbamoyl)thiophen-2-yl)urea], with 8.4 µM.
Under `Cc1ccc(-c2cc(C(=O)N[C@H]3CCCNC3)c(NC(N)=O)s2)cc1` [(S)-1-(3-(piperidin-3-ylcarbamoyl)-5-p-tolylthiophen-2-yl)urea] stands 5.5 µM; under `CCN(CC)CCOc1ccc(-c2cc(C(=O)NC3CCNCC3)c(NC(N)=O)s2)cc1` [1-(5-(4-(2-(diethylamino)ethoxy)phenyl)-3-(piperidin-4-ylcarbamoyl)thiophen-2-yl)urea], over 69 µM; under `NC(=O)Nc1sc(-c2ccncc2)cc1C(=O)N[C@H]1CCCNC1` [(S)-1-(3-(piperidin-3-ylcarbamoyl)-5-(pyridin-4-yl)thiophen-2-yl)urea], 1.8 µM.
`NC(=O)Nc1sc(-c2cccc(F)c2)cc1C(=O)N[C@H]1CCCNC1` [1-(3-((S)-piperidin-3-ylcarbamoyl)-5-(3-fluorophenyl)thiophen-2-yl)urea] gave an IC50 of 5.6 µM.
Under `CN(C)C(=O)c1ccc(-c2cc(C(=O)N[C@H]3CCCNC3)c(NC(N)=O)s2)cc1` [(S)-1-(5-(4-(dimethylcarbamoyl)phenyl)-3-(piperidin-3-ylcarbamoyl)thiophen-2-yl)urea] stands 3.7 µM.

For the origin of these results see BindingDB's records for doi:10.1016/j.bmcl.2008.05.016 (Astrazeneca R&D Boston, 2008).
